Columns and labels:
Experiment in all cases: combination Emax (second highest fraction inhibited in the dose matrix, 72 h); higher = more inhibition; extreme values may be limits of the assay
ES-2 (Ovarian Carcinoma) = test system: ES-2 (Ovarian Carcinoma)
In short: (§1)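 Bliss excess equals the observed combination effect minus the expected value EA + EB − EA·EB, where EA and EB are the effects of each agent alone. Combination Emax is the second-highest inhibition within the matrix. Inhibition was scaled from CellTiter-Glo 2.0 luminescence, with 0 set by vehicle wells and 1 by blank wells, after 72 hours of two-drug dosing of cells plated in 1536-well plates.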

[1] = test system: FLO-1 (Esophageal Adenocarcinoma)
In short: as §1

[2] = test system: HTC-C3 (Thyroid Gland Carcinoma)
In short: as §1

HuO-3N1 (Osteosarcoma) = test system: HuO-3N1 (Osteosarcoma)
In short: as §1

[3] = test system: JHH-1 (Hepatocellular Carcinoma)
In short: as §1

KYM-1 (Rhabdomyosarcoma) = test system: KYM-1 (Rhabdomyosarcoma)
In short: as §1

[4] = test system: LAMA-84 (Chronic Myelogenous Leukemia)
In short: as §1

[5] = test system: NCI-H1623 (Lung Adenocarcinoma)
In short: as §1

[6] = test system: NCI-H196 (Small Cell Lung Carcinoma)
In short: as §1

[7] = test system: NCI-H810 (Non-Small Cell Lung Carcinoma)
In short: as §1

[8] = test system: NKM-1 (Acute Myeloid Leukemia)
In short: as §1

[9] = test system: OCI-AML5 (Acute Myeloid Leukemia)
In short: as §1

[10] = test system: OVTOKO (Ovarian Carcinoma)
In short: as §1

[11] = test system: PANC-02-03 (Pancreatic Carcinoma)
In short: as §1

[12] = test system: PC-14 (Lung Adenocarcinoma)
In short: as §1

[13] = test system: RL95-2 (Endometrial Carcinoma)
In short: as §1

[14] = test system: RPMI-8866 (Chronic Myelogenous Leukemia)
In short: as §1

[15] = test system: SK-MM-2 (Plasma Cell Myeloma)
In short: as §1

[16] = test system: SNU-175 (Colorectal Carcinoma)
In short: as §1

[17] = test system: SW684 (Other Solid Carcinomas)
In short: as §1

Compound	combination Emax (ES-2 (Ovarian Carcinoma))	combination Emax [1]	combination Emax [2]	combination Emax (HuO-3N1 (Osteosarcoma))	combination Emax [3]	combination Emax (KYM-1 (Rhabdomyosarcoma))	combination Emax [4]	combination Emax [5]	combination Emax [6]	combination Emax [7]	combination Emax [8]	combination Emax [9]	combination Emax [10]	combination Emax [11]	combination Emax [12]	combination Emax [13]	combination Emax [14]	combination Emax [15]	combination Emax [16]	combination Emax [17]
COc1nnc2ccc(N3CCC(c4ccc(OCCN5CCN(C)C(=O)[C@H]5C)cc4)CC3)nn12 [AZD5153] + Cn1cnc2c(F)c(Nc3ccc(Br)cc3Cl)c(C(=O)NOCCO)cc21 [Selumetinib] (first compound max 1 µM, 7x7, partner max 10 µM)	0.705	0.635	0.804	0.356	0.693	0.972	1	0.706	0.276	0.587	0.995	1	0.471	0.866	0.589	0.66	0.805	0.963	0.742	0.531
COc1nnc2ccc(N3CCC(c4ccc(OCCN5CCN(C)C(=O)[C@H]5C)cc4)CC3)nn12 [AZD5153] + C[C@@H]1COCCN1C2=NC(=NC(=C2)C3(CC3)[S@](=N)(=O)C)C4=C5C=CNC5=NC=C4 [AZD6738] (first compound max 1 µM, 7x7, partner max 10 µM)	0.877	0.823	0.845	0.427	0.663	0.962	0.97	0.672	0.329	0.795	0.98	0.95	0.661	0.727	0.85	0.733	0.958	0.917	0.883	0.464
COc1nnc2ccc(N3CCC(c4ccc(OCCN5CCN(C)C(=O)[C@H]5C)cc4)CC3)nn12 [AZD5153] + CC1(C)CCC(CN2CCN(c3ccc(C(=O)NS(=O)(=O)c4ccc(NCC5CCOCC5)c([N+](=O)[O-])c4)c(Oc4cnc5[nH]ccc5c4)c3)CC2)=C(c2ccc(Cl)cc2)C1 [Venetoclax] (first compound max 1 µM, 7x7, partner max 1 µM)	0.546	0.51	0.763	0.337	0.391	0.859	0.82	0.419	0.32	0.583	0.978	1	0.507	0.582	0.419	0.426	0.814	1	0.665	0.531
Cc1cc2ncnn2cc1Nc1ncc2c(n1)n(C1CCOCC1)c(=O)n2C [AZD7648] + C=CCn1c(=O)c2cnc(Nc3ccc(N4CCN(C)CC4)cc3)nc2n1-c1cccc(C(C)(C)O)n1 [AZD1775] (first compound max 10 µM, partner max 1 µM)	0.661	0.802	0.383	0.417	0.433	0.33	0.953	0.505	0.479	0.881	0.884	0.947	0.561	0.515	0.86	0.408	0.971	0.573	0.53	0.32
Cc1cc2ncnn2cc1Nc1ncc2c(n1)n(C1CCOCC1)c(=O)n2C [AZD7648] + C[C@@H]1COCCN1C2=NC(=NC(=C2)C3(CC3)[S@](=N)(=O)C)C4=C5C=CNC5=NC=C4 [AZD6738] (first compound max 10 µM, 7x7, partner max 10 µM)	0.743	0.668	0.802	0.331	0.476	0.697	0.947	0.588	0.365	0.697	0.839	0.882	0.344	0.555	0.805	0.592	0.969	0.475	0.537	0.383
CN(CCO)CC[C@H](CSc1ccccc1)Nc1ccc(S(=O)(=O)NC(=O)c2ccc(N3CCC([C@@H](O)c4ccccc4-c4ccc(Cl)cc4)CC3)cc2)cc1S(=O)(=O)C(F)(F)F [AZD4320] + Cc1cc2ncnn2cc1Nc1ncc2c(n1)n(C1CCOCC1)c(=O)n2C [AZD7648] (first compound max 1 µM, 7x7, partner max 10 µM)	0.501	0.347	0.342	0.139	0.382	0.0895	0.752	0.298	0.128	0.43	1	1	0.361	0.109	0.203	0.0598	0.665	1	0.446	0.184
